Measurements from patent US8846606B2, “Method and drug composition for treating septic shock hypotension” (priority 2010, dated 2014).
Where two headings read alike, the source gives them in different places.

Legend:
[1] = system: rats submitted to sepsis (lipopolysaccharide); settings: septic rats as compared to control animals; cited from earlier work
[2] = system: alpha-1A / beta-2 adrenergic receptor; settings: unless beta-2 adrenergic receptor is activated by isoproterenol; cited from earlier work
[3] = system: alpha-1 messengerRNA (mRNA); settings: in vitro, cited from earlier work
[4] = system: alpha-1 receptors; settings: 72 h administration; accentuated in hypertensive vs normotensive rats; cited from earlier work
[5] = system: alpha-2 receptors; settings: 72 h administration; accentuated in hypertensive vs normotensive rats; cited from earlier work
[6] = system: hypertensive patients; settings: cited from earlier work
[7] = system: major abdominal surgery patients; settings: cited from earlier work
[8] = system: patients presenting with septic shock
Excerpt: (§1) In these patients, formal challenges were undertaken with noradrenaline or dobutamine boluses to rise the SBP by 25 mm Hg or the HR by 20 bpmin, respectively.

[9] = system: septic shock in surgical patients
Excerpt: as §1

[10] = system: aortic surgery patients; settings: cited from earlier work
[11] = system: decerebrated rats; settings: catecholamine-depleted rats; cited from earlier work
[12] = system: conscious or anesthetized patients; settings: clonidine 5 μg.kg−1 p.o.; cited from earlier work
[13] = system: patients presenting with severe idiopathic hypotension; settings: clonidine 0.4-0.8 mg p.o.; cited from earlier work
[14] = system: liver transplant patients; settings: cited from earlier work
[15] = system: tetraplegic patients; settings: cited from earlier work
[16] = system: hypertensive patients; settings: after clonidine 0.2-0.4 mg/day for 6-8 weeks, cited from earlier work
[17] = system: beta receptors located on lymphocytes; settings: cited from earlier work
[18] = system: awake and anesthetized patients; settings: phenylephrine bolus 2 μg.kg−1; control +17 mm Hg; cited from earlier work
[19] = system: septic shock in a patient; settings: cited from earlier work
[20] = system: beta receptor; settings: cited from earlier work
[21] = system: patients presenting with moderate septic shock; settings: cited from earlier work
[22] = system: alpha-1 receptors; settings: in vitro; cited from earlier work
[23] = system: beta-1 and alpha1b-receptors; settings: selected areas of the central nervous system; cited from earlier work
[24] = system: animals; settings: cited from earlier work
[25] = clonidine plus state of the art vs state of the art only
[26] = surgical patients pre-treated with clonidine
[27] = clonidine 2 μg.kg−1.h−1 i.v. over 10 min, after 30 to 60 min

SMILES: NC[C@H](O)c1ccc(O)c(O)c1 [NA, noradrenaline]
- blood pressure response to NA (vascular reactivity) reduced by a factor [1]: 5
- intracellular calcium [2]: do not increase

SMILES: CNC[C@H](O)c1ccc(O)c(O)c1 [adenaline]
- alpha-1 messengerRNA (mRNA) ([3]; short term (2-8 h)): increases

SMILES: C[C@](N)(Cc1ccc(O)c(O)c1)C(=O)O [alpha-methyldopa]
- central regulation of alpha-1 receptors [4]: up-regulation
- central regulation of alpha-2 receptors [5]: down regulation
- duration of the pressor response to NA [6]: prolonged
- pressor response to NA [6]: increase

SMILES: Clc1cccc(Cl)c1N=C1NCCN1 [clonidine]
- vascular reactivity to phenylephrine [7]: increased
- lactate plasma concentration [8, 25]: more rapid reduction
- superior vena cava oxygen saturation [8, 25]: faster improvement
- NA requirements needed to support the BP to an acceptable level (MAP>65 mm Hg or adequate diuresis) ([8]; over 24 h, clonidine plus state of the art): reduced dramatically
- total withdrawal of NA infusion ([8]; with acceptable diuresis and SBP): 48 to 72 h
- bolus dose of NA required to increase the SBP by 25 mm Hg, lowered by ([8]; within 24 h of state of the art treatment combined to clonidine infusion (1 μg.kg−1.h−1 for 24 h), vs baseline reactivity upon completion of initial resuscitation): 50 to 75%
- capillary refill upon shock ([9]; despite low BP, no peripheral mottling): very good
- recovery from septic shock [9, 26]: unimpaired
- response to vasopressors and inotropic agents [9, 26]: not blunted
- chronotropic reactivity to isoproterenol [10]: increased
- resting BP [11]: “considerably” elevates
- response to ephedrine [12]: increased
- increase of SBP [13]: 40-70 mm Hg
- nadir of systolic and diastolic pressure upon liver declamping ([14]; clonidine group as referred to placebo group): higher
- noradrenaline requirements ([14]; liver transplant): lowered
- BP [15]: does not lower
- plasma catecholamines concentrations [15]: does not lower
- pressor response to noradrenaline or phenylephrine [15]: Neither does clonidine modify
- CD25: chronotropic dose of isoproterenol to increase HR by 25 bpmin ([16]; from 2.6 μg, ns): 1.9 µg
- PD20: pressor dose of phenylephrine to increase BP by 20 mm Hg ([16]; from 96 μg, n=30, p<0.05): 39 µg
- beta receptors affinity [17, 27]: decrease
- beta receptors density on lymphocytes [17, 27]: increase
- beta receptors, effect in vitro ([17]; in vitro): No difference
- pressor response above baseline SBP [18]: +31 mm Hg
- plasma clonidine concentrations (therapeutic range) ([19]; patient pre-treated with clonidine): 1 to 2 ng/mL
- rise in plasma catecholamines concentrations ([19]; upon septic shock, plasma clonidine in the therapeutic range): 5-10 fold

SMILES: CC(CCc1ccc(O)cc1)NCCc1ccc(O)c(O)c1 (stereo not shown) [dobutamine]
- change in heart rate (HR) on dobutamine challenge ([20]; septic patients): +12 bpmin
- change in heart rate (HR) on dobutamine challenge ([20]; septic shock patients, 10 μg.kg−1.min−1): +3 bpmin

SMILES: O=[N+]([O-])OCC(CO[N+](=O)[O-])O[N+](=O)[O-] [nitroglycerin]
- patients discharged alive ([21]; nitroglycerin bolus 0.5 mg then infusion 2 mg.h−1 (0.5-4 mg.h−1)): 7 out of 8
- peripheral blood flow ([21]; nitroglycerin bolus 0.5 mg then infusion 2 mg.h−1): improved

SMILES: Cc1ccc(N(CC2=NCCN2)c2cccc(O)c2)cc1 [phentolamine]
- effect on the adrenaline-evoked increase in alpha-1 mRNA [3]: unaffected
- effect on the decrease in alpha-1 binding [22]: suppressed

SMILES: CC(C)NCC(O)COc1cccc2ccccc12 (stereo not shown) [propranolol]
- effect on the adrenaline-evoked increase in alpha-1 mRNA [3]: suppresses
- effect on the decrease in alpha-1 binding [22]: do not affect

SMILES: COC(=O)[C@H]1[C@H]2C[C@@H]3c4[nH]c5cc(OC)ccc5c4CCN3C[C@H]2C[C@@H](OC(=O)c2cc(OC)c(OC)c(OC)c2)[C@@H]1OC [reserpine]
- beta-1 and alpha1b-receptors binding [23]: increases
- pressor response to NA and phenylphrine (PE) [24]: enhances
